Laboratory results reported in ChEMBL document CHEMBL5678818, “Discovery of potent SOS1 inhibitors that block RAS activation via disruption of the RAS-SOS1 interaction” (Proc Natl Acad Sci U S A, 2019).

How the values were obtained:
[1] = target: T1, Phosphatidylinositol 3-kinase C2 domain-containing subunit gamma (Homo sapiens) (UniProt O75747); experiment: Inhibition of PIK3C2G (unknown origin) assessed as residual activity at 1000 nM by KINOMEscan analysis relative to control
T1 sequence (whole entry): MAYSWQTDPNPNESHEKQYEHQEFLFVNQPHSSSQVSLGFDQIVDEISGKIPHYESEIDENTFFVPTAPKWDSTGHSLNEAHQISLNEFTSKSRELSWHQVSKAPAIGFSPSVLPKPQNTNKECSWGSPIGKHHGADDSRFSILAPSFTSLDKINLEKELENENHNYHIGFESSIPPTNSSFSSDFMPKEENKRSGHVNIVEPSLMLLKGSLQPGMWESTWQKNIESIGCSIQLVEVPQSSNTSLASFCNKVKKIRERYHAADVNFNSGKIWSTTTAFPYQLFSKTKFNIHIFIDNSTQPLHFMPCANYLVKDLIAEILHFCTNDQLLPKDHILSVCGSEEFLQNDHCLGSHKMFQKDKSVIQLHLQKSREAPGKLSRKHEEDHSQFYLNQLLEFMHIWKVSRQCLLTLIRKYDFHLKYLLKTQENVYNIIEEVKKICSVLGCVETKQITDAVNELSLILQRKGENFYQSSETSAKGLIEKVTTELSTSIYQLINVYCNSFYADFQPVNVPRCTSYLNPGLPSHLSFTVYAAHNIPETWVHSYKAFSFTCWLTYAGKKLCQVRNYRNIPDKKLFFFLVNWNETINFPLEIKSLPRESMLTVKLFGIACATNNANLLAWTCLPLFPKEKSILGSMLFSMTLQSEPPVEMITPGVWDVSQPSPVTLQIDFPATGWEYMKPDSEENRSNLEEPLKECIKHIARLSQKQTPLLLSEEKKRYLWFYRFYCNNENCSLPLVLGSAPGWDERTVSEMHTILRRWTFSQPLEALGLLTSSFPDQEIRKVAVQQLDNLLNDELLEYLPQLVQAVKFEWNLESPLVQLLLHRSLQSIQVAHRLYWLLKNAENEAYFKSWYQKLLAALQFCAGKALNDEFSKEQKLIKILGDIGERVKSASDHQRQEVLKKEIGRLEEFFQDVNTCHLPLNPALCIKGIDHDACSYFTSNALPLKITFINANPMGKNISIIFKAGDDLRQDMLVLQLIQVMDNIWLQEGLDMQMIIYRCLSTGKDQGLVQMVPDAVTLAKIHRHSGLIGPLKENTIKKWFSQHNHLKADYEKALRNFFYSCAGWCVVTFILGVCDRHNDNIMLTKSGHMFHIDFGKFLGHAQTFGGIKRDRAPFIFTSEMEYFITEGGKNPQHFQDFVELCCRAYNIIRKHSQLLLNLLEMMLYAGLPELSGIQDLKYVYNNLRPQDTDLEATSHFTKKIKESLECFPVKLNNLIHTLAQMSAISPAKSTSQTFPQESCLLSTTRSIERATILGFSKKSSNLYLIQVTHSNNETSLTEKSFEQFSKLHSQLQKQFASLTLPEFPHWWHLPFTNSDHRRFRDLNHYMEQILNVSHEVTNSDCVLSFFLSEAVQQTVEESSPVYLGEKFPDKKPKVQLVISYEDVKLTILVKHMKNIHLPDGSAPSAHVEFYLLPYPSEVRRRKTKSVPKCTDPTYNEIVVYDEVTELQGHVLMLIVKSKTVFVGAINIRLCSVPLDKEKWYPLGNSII

[2] = target: T2, Inhibitor of nuclear factor kappa-B kinase subunit epsilon (Homo sapiens) (UniProt Q14164); experiment: Inhibition of IKK-epsilon (unknown origin) assessed as residual activity at 1000 nM by KINOMEscan analysis relative to control
T2 sequence (whole entry): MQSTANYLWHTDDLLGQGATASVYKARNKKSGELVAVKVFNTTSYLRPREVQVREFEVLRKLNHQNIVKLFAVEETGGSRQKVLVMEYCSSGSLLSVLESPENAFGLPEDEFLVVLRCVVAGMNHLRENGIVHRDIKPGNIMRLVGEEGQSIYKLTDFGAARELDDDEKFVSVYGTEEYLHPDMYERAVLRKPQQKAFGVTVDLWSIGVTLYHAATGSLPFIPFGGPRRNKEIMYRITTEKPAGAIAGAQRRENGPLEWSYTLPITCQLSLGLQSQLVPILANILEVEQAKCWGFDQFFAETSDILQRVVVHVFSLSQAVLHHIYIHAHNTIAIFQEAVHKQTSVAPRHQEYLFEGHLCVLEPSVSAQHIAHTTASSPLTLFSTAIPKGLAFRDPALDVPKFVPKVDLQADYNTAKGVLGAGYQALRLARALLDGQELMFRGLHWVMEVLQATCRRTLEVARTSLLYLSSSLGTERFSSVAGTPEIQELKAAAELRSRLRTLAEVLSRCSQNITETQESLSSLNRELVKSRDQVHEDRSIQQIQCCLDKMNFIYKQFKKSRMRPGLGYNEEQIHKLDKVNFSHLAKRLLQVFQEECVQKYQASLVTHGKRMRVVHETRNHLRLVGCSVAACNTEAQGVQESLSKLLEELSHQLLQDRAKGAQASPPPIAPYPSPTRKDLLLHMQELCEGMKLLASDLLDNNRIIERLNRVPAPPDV

Row | Compound | Activity [1] | Activity [2]
1 | COc1cc2nc(C)nc(N[C@H](C)c3cccc(-c4cn[nH]c4)c3)c2cc1OC | 87% | 88%
2 | COc1cc2ncnc(N[C@H](C)c3cccc4ccccc34)c2cc1OC | 35% | 98%
